Data published in ChEMBL document CHEMBL1275601, “Striking species difference in the contribution of concentrative nucleoside transporter 2 to nucleoside uptake between mouse and rat hepatocytes” (Antimicrob Agents Chemother, 2010).
Activity calls are given as the source filed them.

How the values were obtained:
Format in all cases: cell-based
Hepatocyte [1] = test: Transport through CNT3 in mouse hepatocytes by oil filtration assay in presence of sodium ions in Kreb-henseleit buffer
[2] = target: T1, Sodium/nucleoside cotransporter 1 (Rattus norvegicus) (UniProt Q62674); test: Transport through CNT1 in rat hepatocytes by oil filtration assay in presence of sodium ions in Kreb-henseleit buffer containing 100 uM NBMPR and thymidine; conditions: Hepatocyte
T1 sequence (whole entry): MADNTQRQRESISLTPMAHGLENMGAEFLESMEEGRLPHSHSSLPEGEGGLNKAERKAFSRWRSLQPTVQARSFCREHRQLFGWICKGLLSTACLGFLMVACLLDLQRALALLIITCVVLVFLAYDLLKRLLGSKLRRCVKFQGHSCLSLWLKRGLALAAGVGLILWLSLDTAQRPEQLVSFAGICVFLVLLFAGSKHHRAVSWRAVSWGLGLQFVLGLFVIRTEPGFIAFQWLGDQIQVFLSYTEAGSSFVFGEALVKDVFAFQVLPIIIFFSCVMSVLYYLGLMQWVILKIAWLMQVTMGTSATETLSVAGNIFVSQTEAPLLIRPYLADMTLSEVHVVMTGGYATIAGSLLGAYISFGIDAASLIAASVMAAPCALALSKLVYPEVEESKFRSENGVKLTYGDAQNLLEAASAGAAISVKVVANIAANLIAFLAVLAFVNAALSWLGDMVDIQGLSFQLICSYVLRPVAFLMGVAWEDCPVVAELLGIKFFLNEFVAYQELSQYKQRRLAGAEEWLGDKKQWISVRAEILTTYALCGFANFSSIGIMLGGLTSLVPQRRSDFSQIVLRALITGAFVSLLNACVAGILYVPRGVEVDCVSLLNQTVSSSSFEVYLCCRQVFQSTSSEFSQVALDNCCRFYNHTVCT

[3] = target: T1, Sodium/nucleoside cotransporter 1 (Rattus norvegicus); test: Transport through CNT1 in rat hepatocytes by oil filtration assay in presence of sodium ions in Kreb-henseleit buffer containing 100 uM NBMPR and 1 mM uridine; conditions: Hepatocyte
[4] = target: T2, Equilibrative nucleoside transporter 2 (Rattus norvegicus) (UniProt O54699); test: Transport through ENT2 in rat hepatocytes by oil filtration assay in presence of sodium ions in Kreb-henseleit buffer containing 100 uM NBMPR; conditions: Hepatocyte
T2 sequence (whole entry): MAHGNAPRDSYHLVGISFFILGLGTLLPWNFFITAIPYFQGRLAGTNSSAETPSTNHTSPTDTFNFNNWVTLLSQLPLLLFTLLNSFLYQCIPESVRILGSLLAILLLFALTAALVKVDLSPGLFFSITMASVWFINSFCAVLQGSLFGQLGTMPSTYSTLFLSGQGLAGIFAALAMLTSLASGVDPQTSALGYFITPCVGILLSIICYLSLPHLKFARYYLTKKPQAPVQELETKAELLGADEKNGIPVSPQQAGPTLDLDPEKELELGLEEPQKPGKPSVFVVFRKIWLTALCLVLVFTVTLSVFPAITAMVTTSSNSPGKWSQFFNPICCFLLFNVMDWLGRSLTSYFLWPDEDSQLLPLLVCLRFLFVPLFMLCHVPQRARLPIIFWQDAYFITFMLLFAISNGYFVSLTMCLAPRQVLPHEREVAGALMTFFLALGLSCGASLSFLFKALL

[5] = target: T3, Equilibrative nucleoside transporter 1 (Rattus norvegicus) (UniProt O54698); test: Transport through ENT1 in rat hepatocytes by oil filtration assay in presence 100 uM of transporter inhibitor NBMRP; conditions: Hepatocyte
T3 sequence (whole entry): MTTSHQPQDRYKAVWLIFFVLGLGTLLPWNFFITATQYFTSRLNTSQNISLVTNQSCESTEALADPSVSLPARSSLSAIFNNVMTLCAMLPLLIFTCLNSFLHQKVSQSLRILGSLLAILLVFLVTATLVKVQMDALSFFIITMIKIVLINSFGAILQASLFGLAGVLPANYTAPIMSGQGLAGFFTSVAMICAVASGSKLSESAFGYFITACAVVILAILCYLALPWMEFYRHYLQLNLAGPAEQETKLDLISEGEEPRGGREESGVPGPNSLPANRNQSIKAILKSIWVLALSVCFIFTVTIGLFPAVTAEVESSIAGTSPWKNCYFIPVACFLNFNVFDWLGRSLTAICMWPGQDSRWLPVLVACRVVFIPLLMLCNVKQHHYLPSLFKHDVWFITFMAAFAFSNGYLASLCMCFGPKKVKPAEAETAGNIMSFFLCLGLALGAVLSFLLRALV

[6] = target: T4, Sodium/nucleoside cotransporter 2 (Rattus norvegicus) (UniProt Q62773); test: Transport through CNT2 in rat hepatocytes by oil filtration assay in presence of sodium ions in Kreb-henseleit buffer containing 100 uM NBMPR and 1 mM uridine; conditions: Hepatocyte
T4 sequence (whole entry): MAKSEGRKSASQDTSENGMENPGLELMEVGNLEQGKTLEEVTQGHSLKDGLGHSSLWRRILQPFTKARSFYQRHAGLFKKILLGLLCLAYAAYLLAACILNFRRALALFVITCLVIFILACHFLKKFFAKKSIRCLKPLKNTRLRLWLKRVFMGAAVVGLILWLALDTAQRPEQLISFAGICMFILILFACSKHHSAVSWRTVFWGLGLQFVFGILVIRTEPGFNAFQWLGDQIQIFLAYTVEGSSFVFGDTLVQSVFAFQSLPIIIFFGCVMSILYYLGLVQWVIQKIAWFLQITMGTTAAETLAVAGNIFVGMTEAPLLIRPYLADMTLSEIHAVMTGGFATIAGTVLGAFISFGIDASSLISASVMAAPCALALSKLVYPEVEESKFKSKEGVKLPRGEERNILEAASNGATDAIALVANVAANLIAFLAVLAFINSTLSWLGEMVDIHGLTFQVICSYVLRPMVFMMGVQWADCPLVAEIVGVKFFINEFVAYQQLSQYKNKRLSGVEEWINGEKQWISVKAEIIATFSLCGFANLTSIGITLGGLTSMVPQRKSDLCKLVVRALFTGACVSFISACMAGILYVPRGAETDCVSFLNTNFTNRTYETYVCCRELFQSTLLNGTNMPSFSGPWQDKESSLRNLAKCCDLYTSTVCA

Hepatocyte [7] = test: Transport through CNT3 in rat hepatocytes by oil filtration assay in presence of sodium ions in Kreb-henseleit buffer containing 100 uM NBMPR and 1 mM inosine

Measured: Activity

Nc1ncnc2c1ncn2[C@@H]1O[C@H](CO)[C@@H](O)[C@H]1O
active: [4]
inactive: all other assays above

NC(=O)c1ncn([C@@H]2O[C@H](CO)[C@@H](O)[C@H]2O)n1
active: [4]
inactive: all other assays above
